The target in assay [1] is T1, Proteasome Macropain subunit MB1 (Homo sapiens, UniProt P28074).
T1 sequence (P28074 whole entry): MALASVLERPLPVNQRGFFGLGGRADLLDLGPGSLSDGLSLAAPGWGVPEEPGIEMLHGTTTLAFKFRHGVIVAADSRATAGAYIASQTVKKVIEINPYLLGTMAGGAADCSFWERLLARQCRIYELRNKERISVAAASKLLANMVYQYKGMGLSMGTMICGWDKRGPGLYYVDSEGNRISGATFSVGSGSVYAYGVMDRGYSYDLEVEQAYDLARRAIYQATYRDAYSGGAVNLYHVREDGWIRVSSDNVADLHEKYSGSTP
Nature of the assay: Inhibition of human 20S constitutive proteosome beta5c subunit using Suc-LLVY-AMC as substrate measured after 10 mins by fluorescence based analysis.

Assay [2] deals with T1, Proteasome Macropain subunit MB1. As to the kind of experiment: Competitive inhibition of human 20S constitutive proteosome beta5c subunit using Suc-LLVY-AMC as substrate measured after 10 mins by fluorescence based analysis.

Data on nine compounds can be found in ChEMBL document CHEMBL5252637, “Identification of a new class of proteasome inhibitors based on a naphthyl-azotricyclic-urea-phenyl scaffold” (RSC Med Chem, 2023).

Broadly, the IC50 is the concentration at which inhibition is half-maximal. High values mean a need for much substance, low ones inhibition by little substance. A word on the Ki: it is a dissociation constant, usually derived from enzyme kinetics or from competition with a known ligand.

A value given as a limit tells only on which side of the number the result lay.

In turn, `COc1ccccc1NC(=O)Nc1ccc2n(c1=O)C[C@@H]1C[C@H]2CN(C(=O)c2ccccn2)C1` returned an IC50 in assay [1] of 560 µM. The same measure, in the same setting: for `N#Cc1cccc(NC(=O)Nc2ccc3n(c2=O)C[C@@H]2C[C@H]3CN(C(=O)c3ccccc3)C2)c1` the value was 201 µM.

In assay [1], `COc1ccccc1NC(=O)Nc1ccc2n(c1=O)C[C@@H]1C[C@H]2CN(C(=O)c2ccc3ccccc3c2)C1` gave an IC50 of 6.65 µM. In addition, affinity in assay [2] was put at a Ki of 4.6 µM.

In assay [1], `N#Cc1cccc(NC(=O)Nc2ccc3n(c2=O)C[C@@H]2C[C@H]3CN(C(=O)c3ccc4ccccc4c3)C2)c1` gave an IC50 of 10.3 µM. Besides, the Ki in assay [2] is 3.42 µM. In assay [1], `CC(=O)N1C[C@H]2C[C@@H](C1)c1ccc(NC(=O)Nc3cccc(C#N)c3)c(=O)n1C2` had a 50% inhibitory concentration (IC50) of 491 µM. In the case of `O=C(Nc1ccccc1)Nc1ccc2n(c1=O)C[C@@H]1C[C@H]2CN(C(=O)c2ccc3ccccc3c2)C1`, in assay [1], the midpoint of inhibition, the IC50, lay at 11.1 µM. In assay [2], this compound gave a Ki of 9.69 µM. Regarding `O=C(Nc1ccc(Cl)cc1)Nc1ccc2n(c1=O)C[C@@H]1C[C@H]2CN(C(=O)c2ccc3ccccc3c2)C1`, the IC50 in assay [1] came out at 3.43 µM. In assay [2], the affinity, expressed as Ki, was 1.14 µM.

Consider `O=C(Nc1ccccc1)Nc1ccc2n(c1=O)C[C@@H]1C[C@H]2CN(C(=O)c2ccccn2)C1`, for which the IC50 in assay [1] is over 500 µM. In assay [1], `N#Cc1cccc(NC(=O)Nc2ccc3n(c2=O)C[C@@H]2C[C@H]3CN(C(=O)c3cccnc3)C2)c1` returned an IC50 of 440 µM.
